Tested on: SV129 mice
Test: Neurogenesis (proliferation, survival, maturation) in the SV129 mouse model
Type: in vivo
Settings: compared to VEH
Source text: We next assessed the effects of GL-II-73 on neurogenesis using the SV129 mouse model Kim et al. 2017. Neural Plasticity, doi.org.10.1155/2017/5863258. Specifically, we assessed the effects of treatment on neuronal cell proliferation, survival, and maturation. It is now recognized that neurogenesis occurs not only during development, but also in the adult brain. […] Specifically, adult neurogenesis is known to occur in three regions in the mammalian brain: (i) the subgranular zone (SGZ) of the dentate gyrus in the hippocampus, which is a region that is involved in regulating learning and memory; (ii) the subventricular zone (SVZ), which is situated throughout the lateral walls of the brain's lateral ventricles; and (ii) the amygdala. New neurons born in the SGZ migrate into the granule cell layer of the dentate gyrus and eventually become granule cells. These newborn neurons integrate into the existing circuitry and receive functional input. Adult neurogenesis in the hippocampus is therefore defined as the progression from neural stem cell to mature dentate granule neuron. All stages of adult neurogenesis are regulated by physiological activity, including the proliferation, differentiation, fate determination of adult neural stem cells (NSCs) and progenitors, and the survival, maturation, and integration of newborn neurons.
The stages of neurogenesis can be broken down into (i) proliferation, (ii) survival of the newly formed cells, and (iii) their maturation. Each can be evaluated using specific markers for proliferation, survival, and maturation. […] BrdU can be used to show survival of the newly proliferating cells since it is incorporated into the newly synthesized DNA of replicating cells and is then maintained in the newly formed cells. Thus, quantitative immunohistochemistry against BrdU is used as a proxy of survival. Finally, doublecortin can be used as a proxy of maturation. Previous studies have shown that all steps of neurogenesis were down regulated in the SV129 mice, and further that chronic treatment with fluoxetine, a first line monoaminergic antidepressant, increased the neurogenesis in this mouse model. We therefore used this model system to assess the effects of chronic treatment with GL-II-73 on neurogenesis.
Fluoxetine treatment was used as a positive control in each experiment.

For CNCCC(Oc1ccc(C(F)(F)F)cc1)c1ccccc1 (stereo not shown) [FLX, fluoxetine], the “proliferation: number of K167-positive cells” value (chronic treatment (4 weeks), FIG. 13A, FLX p<0.001, GL-II-73 p<0.05) was “increased the number of K167-positive cells”, the “survival: BrdU-positive cells” value (chronic treatment (4 weeks), FIG. 13B) was “only FLX increased BrdU-positive cells” and the “maturation: number of DCX+cells” value (chronic treatment, FIG. 14A, ps<0.05) was “increased with FLX compared to VEH”. For the same molecule, the “maturation index (DCX+cells possessing tertiary dendrites over the total DCX+cells)” value (chronic treatment, FIG. 14B, ps<0.01) was “an increase with both FLX and GL-II-73”.

Reference: patent US12636291B2, “Compositions and methods relating to use of agonists of ALPHA5-containing GABAA receptors” (Centre for Addiction and Mental Health, priority 2019, dated 2026)
